# From patent US11883398B2, “Dipeptidylpeptidase 4 inhibition enhances lymphocyte trafficking, improving both naturally occurring tumor immunity and immunotherapy” (INSTITUT PASTEUR, priority 2015, dated 2024)
# “Also recorded” adds a separate entry of the source.
# Columns and labels:
# B16F10 tumors = experiment: Histology of B16F10 tumors (CD31, CD3, H&E); assay type: in vivo, mouse; details: untreated vs sitagliptin-treated mice
# Description: B16F10 tumors were dissected and fixed in JB fixative (zinc acetate 0.5%, zinc chloride 0.05%, and calcium acetate 0.05% in Tris buffer, pH 7) for 48 hours, prior to being embedded in low-melting point paraffin (Poly Ethylene Glycol Distearate; Sigma, USA). 5 μm thick paraffin sections were deparafinized in absolute ethanol, air dried, and routinely stained with hematoxylin-eosin or used for immunolabelling. For immunohistochemistry, the following primary antibodies were used: anti-CD3 (rabbit α-human, clone A0452, DAKO, Carpinteria, CA) and anti-CD31 (rat a-mouse, clone 1/75e, BD Pharmingen, Franklin Lake, NJ, USA). CD31 immunolabelled sections were digitalized using a Zeiss Axio Scan Z.1 at ×20. For histomorphometry of blood vessels, CD31 positive profiles were manually delineated on digitalized images, using the “area” tool of the Zen software (Zeiss) at a magnification of 30%. The whole tumor surface was also delineated in the same way at a magnification of 2%. Mean number of blood vessels per mm2 and mean vessel area were then calculated for each group of mice.
# mCXCL10 [1] = experiment: Chemokine quantification in B16F10 tumor homogenates (ELISA/Luminex); assay type: in vivo, mouse
# Description: Soluble extracts were collected after centrifugation of tumor homogenates.
# For detection of mCXCL10(1-77), MAXISORP PLATES® (Nunc) were coated with 4 μg/ml of α-mCXCL10 capturing antibody (MAB466, R&D) in PBS and incubated over night at 4° C. Plates were washed twice with 300 μL of PBS. […] Tumor and plasma samples were diluted in BSA 1% and incubated for 2h, at room temperature.
# [2] = Thioglycollate induced peritonitis; assay type: in vivo, mouse; details: 24 h after intraperitoneal thioglycollate, sitagliptin vs control
# Description: WT and Dpp4^−/− mice were intraperitoneally injected with PBS or 1 μg of mCXCL10, mCXCL9 or mCCL5 (all from Peprotech). At the indicated time points, mice were sacrificed and peritoneal cells were collected in 10 mL of PBS. For thioglycollate induced peritonitis mice were intraperitoneally injected with thioglycollate 3% weight/volume, 24 hours before collection of peritoneal cells.
# mCXCL10 [3] = details: sitagliptin vs control
# Description: Plates were washed twice with 300 μL of PBS. Blocking was done with BSA 1% (proteinase free, Gibco), in PBS for 2h at room temperature. Plates were washed 3 times with 300 μL of 0.05% Tween-20 in PBS. Tumor and plasma samples were diluted in BSA 1% and incubated for 2h, at room temperature. To obtain a standard curve, and to control for the cross-reactivity of the detection antibody, dilutions of recombinant mCXCL10 (Peprotech) or DPP4-digested mCXCL10(3-77) were incubated in parallel. For detection of mCXCL10(1-77), biotinylated α-mCXCL10(1-77) (AbDSerotec, 0.5 μg/ml, clone AbD17185.1), Streptavidin-HRP (BD Biosciences) and 1-STEP ULTRA TMB (Thermo Scientific) were used.
# Enzymatic reactions were stopped with HCL 1N and plates were read with 450 nm in a Lab-systems […] MS (Thermo) reader. […] Detection of mDPP4, mCCL22 and mCXCL12 was done with the DUOSET® ELISA kit (R&D). Detection of mVEGF, mCCL2 and mCCL3 was done with a multiplex kit (Invitrogen).
# DPP9 = DPP9 (Homo sapiens, UniProt Q86TI2); details: Verspohl 2012; Huan et al. 2015; cited from earlier work
# Sequence of DPP9 (Q86TI2 whole entry, species assumed): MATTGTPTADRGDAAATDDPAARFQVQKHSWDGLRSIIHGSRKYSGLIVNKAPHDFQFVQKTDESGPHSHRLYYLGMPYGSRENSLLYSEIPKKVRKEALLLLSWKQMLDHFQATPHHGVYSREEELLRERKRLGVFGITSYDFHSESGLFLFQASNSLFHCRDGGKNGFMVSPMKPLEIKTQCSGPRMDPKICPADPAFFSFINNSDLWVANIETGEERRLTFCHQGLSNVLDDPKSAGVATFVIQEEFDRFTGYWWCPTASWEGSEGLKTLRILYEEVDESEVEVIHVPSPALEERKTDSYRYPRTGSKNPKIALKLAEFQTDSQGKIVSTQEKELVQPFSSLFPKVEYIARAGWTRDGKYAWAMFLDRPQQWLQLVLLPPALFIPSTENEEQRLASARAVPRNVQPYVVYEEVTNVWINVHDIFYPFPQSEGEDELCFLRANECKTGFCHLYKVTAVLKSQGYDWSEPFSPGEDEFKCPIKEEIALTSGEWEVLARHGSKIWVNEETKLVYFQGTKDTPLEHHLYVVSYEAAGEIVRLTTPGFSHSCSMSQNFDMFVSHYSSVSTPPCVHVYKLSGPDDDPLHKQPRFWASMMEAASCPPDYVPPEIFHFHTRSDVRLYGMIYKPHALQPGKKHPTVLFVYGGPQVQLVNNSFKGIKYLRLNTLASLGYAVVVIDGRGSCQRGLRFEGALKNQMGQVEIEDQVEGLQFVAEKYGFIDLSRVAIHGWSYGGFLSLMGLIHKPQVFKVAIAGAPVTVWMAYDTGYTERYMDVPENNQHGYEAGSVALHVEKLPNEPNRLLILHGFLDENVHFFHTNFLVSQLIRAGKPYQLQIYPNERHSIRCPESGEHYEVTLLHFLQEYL
# CT26 colon carcinoma = experiment: Subcutaneous CT26 colon carcinoma tumor growth in vivo; set-up: species or system mouse
# Description: Mice used were 7-12 weeks old. […] B16F10 and […] (Ovalbumin-expressing B16F10 cells, gift from C. Reis e Sousa) tumor cells were cultured in DMEM (Gibco) supplemented with 10% FCS (PAA), 0.1 mM non-essential amino acids, 1 mM sodium pyruvate, 10 mM Hepes, 70 μM beta-mercaptoethanol and 23 μg/ml gentamycin (all from Gibco). CT26 colon carcinoma cells were cultured in RPMI (Gibco) supplemented as described for DMEM. Cells for injections were passaged 1-2 times after thawing, before use. WT and genetically modified mice were subcutaneously injected with 2×10^5 B16 or 5×10^5 CT26 cells in the shaved right flank. […] For blocking of chemokine and chemokine receptors, WT mice were intraperitoneally injected with 100 μg of hamster a-mCXCR3 (clone CXCR3-173, BioLegend), 100 μg of hamster α-mCCR5 (clone HM-CCR5, BioLegend), 50 μg of rat anti-mCXCL10 (clone 134013, R&D systems) and 20 μg of rat-α-mCXCR4 (clone 2B11/CXCR4, BD Biosciences) or with respective isotype antibodies (hamster IgG (clone HTK888, BioLegend, used as control for mCXCR3 and mCCR5 blockage); rat IgG2a (clone 54447, R&D systems, used as control for mCXCL10 blockade) and rat IgG2b (clone A95-1, BD Biosciences, used as control for mCXCR4 blockade). […] Tumor height and width were measured with a caliper and tumor volume was calculated (Elliptical volume=width^2×height×0.523). […]
structure (smiles),measurement,setting,value
N[C@@H](CC(=O)N1CCn2c(nnc2C(F)(F)F)C1)Cc1cc(F)c(F)cc1F [sitagliptin],number and diameter of tumor blood vessels (CD31 staining),B16F10 tumors,"no difference in the number, nor the diameter of blood vessels"
same,tumor associated mCXCL10 concentration,"mCXCL10 [1]; B16F10 tumors, sitagliptin-treated vs control mice",elevated concentrations
same,full-length mCXCL10(1-77) among total mCXCL10 in tumor,"mCXCL10 [1]; after intra-tumoral CpG-A, sitagliptin vs control",protected the full-length form of the molecule
same,intra-tumoral expression of mCCL2 and mCCL22 after CpG-A,mCXCL10 [1]; control vs sitagliptin treated animals,no significant differences
same,"thioglycollate-induced neutrophil, monocyte and eosinophil migration",[2],no differences were observed
same,quantity of plasma mCCL2,mCXCL10 [3]; CpG-A intravenously,higher
same,CpG-A-induced plasma total CXCL10,"mCXCL10 [3]; WT mice, 5 μg CpG-A intravenously",stabilization of CpG-A-induced plasma CXCL10
same,quantity of plasma mCXCL10(1-77),"mCXCL10 [3]; WT mice, CpG-A intravenously",significantly higher
same,effect on DPP9 activity,DPP9,no effect
same,CT26 tumor growth,"CT26 colon carcinoma; BALB/c mice, sitagliptin vs control chow",marked delay of CT26 tumor growth; also recorded: delayed CT26 growth
same,CT26 tumor growth with CXCR3 blocking antibodies,"CT26 colon carcinoma; anti-CXCR3 antibody, sitagliptin vs control",loss of protection
